Experimental data taken from patent US20170258774A1 (priority 2016, published 2017).

Columns and labels:
BChE [1] = target: BChE (Rattus norvegicus, UniProt Q9JKC1); type: biochemical
BChE [2] = target: BChE (Cavia porcellus, UniProt H0V4F8); type: biochemical, guinea pig
BChE [3] = target: BChE (Homo sapiens, UniProt P06276); type: biochemical
BChE (Homo sapiens, UniProt P06276), sequence (P06276 29-602): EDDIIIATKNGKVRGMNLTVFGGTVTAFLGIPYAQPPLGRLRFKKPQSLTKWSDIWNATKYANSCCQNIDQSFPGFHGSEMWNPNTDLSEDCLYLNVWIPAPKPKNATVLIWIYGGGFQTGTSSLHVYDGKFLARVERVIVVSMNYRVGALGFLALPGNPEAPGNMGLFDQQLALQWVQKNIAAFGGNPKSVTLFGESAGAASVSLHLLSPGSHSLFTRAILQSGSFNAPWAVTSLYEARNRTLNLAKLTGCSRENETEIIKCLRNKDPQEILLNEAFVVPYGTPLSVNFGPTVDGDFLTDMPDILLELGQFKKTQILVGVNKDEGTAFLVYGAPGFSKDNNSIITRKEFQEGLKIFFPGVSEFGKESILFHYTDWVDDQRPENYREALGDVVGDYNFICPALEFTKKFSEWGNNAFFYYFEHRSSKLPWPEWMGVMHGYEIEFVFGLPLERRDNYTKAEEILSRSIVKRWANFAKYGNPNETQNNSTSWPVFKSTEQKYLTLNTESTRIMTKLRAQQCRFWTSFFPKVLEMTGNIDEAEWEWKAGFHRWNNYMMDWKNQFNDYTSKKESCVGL

BChE (Rattus norvegicus, UniProt Q9JKC1), sequence (Q9JKC1 24-597 limits assumed): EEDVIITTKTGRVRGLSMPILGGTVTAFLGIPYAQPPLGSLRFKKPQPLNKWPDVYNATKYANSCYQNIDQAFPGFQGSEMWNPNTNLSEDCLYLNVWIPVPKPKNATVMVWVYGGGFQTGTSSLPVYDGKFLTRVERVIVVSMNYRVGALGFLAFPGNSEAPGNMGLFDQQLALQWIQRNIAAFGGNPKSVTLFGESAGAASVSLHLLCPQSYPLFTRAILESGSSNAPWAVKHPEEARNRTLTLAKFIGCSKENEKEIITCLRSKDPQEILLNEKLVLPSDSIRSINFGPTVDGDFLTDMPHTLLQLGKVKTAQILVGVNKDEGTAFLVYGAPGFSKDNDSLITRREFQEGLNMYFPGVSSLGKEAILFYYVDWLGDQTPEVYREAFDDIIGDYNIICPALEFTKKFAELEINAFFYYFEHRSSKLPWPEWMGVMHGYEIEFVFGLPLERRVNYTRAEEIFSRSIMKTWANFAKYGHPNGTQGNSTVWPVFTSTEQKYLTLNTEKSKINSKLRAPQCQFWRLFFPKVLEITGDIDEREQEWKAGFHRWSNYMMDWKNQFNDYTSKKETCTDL
BChE (Cavia porcellus, UniProt H0V4F8), sequence (H0V4F8 29-602 limits assumed): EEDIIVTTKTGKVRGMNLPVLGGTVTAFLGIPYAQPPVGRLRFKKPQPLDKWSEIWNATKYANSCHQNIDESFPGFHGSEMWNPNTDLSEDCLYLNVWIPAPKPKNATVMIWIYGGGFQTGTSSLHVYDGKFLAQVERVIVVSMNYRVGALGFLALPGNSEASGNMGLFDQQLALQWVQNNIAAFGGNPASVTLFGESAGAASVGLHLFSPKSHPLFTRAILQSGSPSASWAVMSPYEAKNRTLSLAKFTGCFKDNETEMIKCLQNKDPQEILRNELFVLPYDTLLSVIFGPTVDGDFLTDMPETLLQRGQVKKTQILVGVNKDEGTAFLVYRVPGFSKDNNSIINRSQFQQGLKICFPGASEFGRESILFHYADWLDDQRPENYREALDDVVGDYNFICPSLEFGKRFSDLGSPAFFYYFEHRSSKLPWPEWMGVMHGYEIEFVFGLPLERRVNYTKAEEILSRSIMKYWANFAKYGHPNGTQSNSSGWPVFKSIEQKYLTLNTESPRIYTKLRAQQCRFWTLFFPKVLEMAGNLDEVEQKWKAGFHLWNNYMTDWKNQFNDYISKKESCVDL

| SMILES | OP Inhibitory Concentrations of at least 80% BChE (BChE [1]) [µM] | OP Inhibitory Concentrations of at least 80% BChE (BChE [2]) [µM] | OP Inhibitory Concentrations of at least 80% BChE (BChE [3]) [µM] | BChE inhibitory potency relative to phorate oxon (BChE [1]) |
| --- | --- | --- | --- | --- |
| CCOP(=O)(OCC)SCSCC [PHO, phorate oxon] | 10.0 | 5.60 | 0.178 |  |
| CCOP(=O)(OCC)SC[S+]([O-])CC (centres unmarked) [PHOsox, phorate oxon sulfoxide] | 1.00 |  |  | ten-fold more potent |
| CCOP(=O)(OCC)Oc1ccc([N+](=O)[O-])cc1 [PXN, phosphoric acid diethyl 4-nitrophenyl ester] | 1.78 | 0.178 | 0.032 |  |
